Key:
Format in all cases: functional
[1] = Antioxidant activity assessed as residual ABTS cationic radical scavenging activity at 1.5 mM after 30 mins relative to control
[2] = Antioxidant activity assessed as residual galvinoxyl radical scavenging activity at 1.5 mM after 30 mins relative to control
[3] = system: Radical scavenging activity; test: Antioxidant activity assessed as residual DPPH radical scavenging activity at 1.5 mM after 30 mins relative to control
[4] = Antioxidant activity against AAPH-induced linoleic acid oxidation assessed as exhausted methyl linoleate at 2 mM after 4 hrs relative to control
[5] = Antioxidant activity against beta-carotene bleaching assessed as decrease of absorbance at 0.3 mM after 100 mins relative to control; set-up: scale not given: the % may be the effect or the level left
[6] = Antioxidant activity against hydroxyl radical-induced DNA damage assessed as TBARS production at 400 uM after 30 mins relative to control
[7] = Antioxidant activity against AAPH-induced DNA damage assessed as TBARS production at 200 uM after 4 hrs relative to control
[8] = Antioxidant activity against Cu(2+)/GSH-induced DNA damage assessed as TBARS production at 200 uM after 4 hrs relative to control

SMILES | Activity [1] [%] | Activity [2] [%] | Activity [3] [%] | Activity [4] [%] | Activity [5] [%] | Activity [6] [%] | Activity [7] [%] | Activity [8] [%]
O=C(O)c1cnc2c(Cl)cc(Cl)cc2c1O | 104 | 104 | 93.8 | 7.3 | 129 | 83.3 | 99.4 | 95.4
O=C(O)c1cnc2c(Cl)ccc(Cl)c2c1O | 99.9 | 104 | 94.1 | 62.7 | 77.3 | 84.6 | 95.4 | 103
O=C(O)c1cnc2cc(Cl)cc(Cl)c2c1O | 90 | 93.5 | 91.2 | 111 | 77.3 | 92.7 | 98.6 | 98.3
O=C(O)c1cnc2c(Cl)c(Cl)ccc2c1O | 97.5 | 102 | 93.4 | 41.9 | 108 | 88.7 | 97.9 | 111
O=C(O)c1cnc2ccccc2c1O | 101 | 102 | 94.6 | 113 | 77.3 | 90.4 | 103 | 96.6
O=C(O)c1cnc2cc(Cl)ccc2c1O | 102 | 104 | 94.7 | 107 | 91.1 | 102 | 95 | 88.9

Reference: ChEMBL document CHEMBL1157847, “Dichloro-4-quinolinol-3-carboxylic acid: synthesis and antioxidant abilities to scavenge radicals and to protect methyl linoleate and DNA” (Eur J Med Chem, 2010)
